In ChEMBL document CHEMBL1201862, “PubChem BioAssay data set” (2004):
Where “and” joins values, the source holds several entries; their conditions need not be identical. Equal entries are not always repeated.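 These data come from cells grown in 96-well plates and exposed to compound for 48 hours at five concentrations. The concentration for 50% growth inhibition is given as GI50.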 Calls of active or inactive are those of the source. Cut-off read from the data, not from the text of the source: active = GI50 up to about 1.1 µM and inactive = higher.

Tests used:
Experiment in all cases: NCI tumour cell line growth inhibition, 48 h
OVCAR-3 = tested on: OVCAR-3
UACC-62 = tested on: UACC-62
EKVX = tested on: EKVX
Hs-578T = tested on: Hs-578T
ACHN = tested on: ACHN
SF-268 = tested on: SF-268
HOP-62 = tested on: HOP-62
KM12 = tested on: KM12
UO-31 = tested on: UO-31
RXF 393 = tested on: RXF 393
SK-MEL-5 = tested on: SK-MEL-5
PC-3 = tested on: PC-3
OVCAR-5 = tested on: OVCAR-5
HOP-92 = tested on: HOP-92
NCI-H522 = tested on: NCI-H522
A498 = tested on: A498
RPMI-8226 = tested on: RPMI-8226
SR = tested on: SR
T47D = tested on: T47D

Measured: GI50

CC1=CC(=O)/C(=C/n2c(=S)[nH]c3cc(C)ccc32)C(=O)O1
inactive: OVCAR-3 > 100 µM | UACC-62 > 100 µM | EKVX > 100 µM | Hs-578T > 100 µM | ACHN > 100 µM | SF-268 > 100 µM | HOP-62 > 100 µM | KM12 > 100 µM | UO-31 > 100 µM | RXF 393 6.21 µM | SK-MEL-5 > 100 µM | PC-3 > 100 µM | OVCAR-5 > 100 µM | HOP-92 > 100 µM | NCI-H522 > 100 µM

CCOC(=O)c1c(-c2ccc(O)c(OC)c2)c(C#N)c(=S)n(C2OC(COC(C)=O)C(OC(C)=O)C(OC(C)=O)C2OC(C)=O)c1-c1ccccc1 (stereo not drawn)
inactive: A498 > 100 µM | EKVX 96.8 µM and 75.5 µM | Hs-578T > 100 µM | ACHN 48.8 µM and 61.8 µM | SF-268 > 100 µM and 70.6 µM | HOP-62 61.4 µM | RPMI-8226 72.9 µM | KM12 45.4 µM and 50.8 µM | UO-31 43.7 µM and 62.1 µM | SR > 100 µM | RXF 393 > 100 µM and 58.9 µM | PC-3 43.8 µM and 31.4 µM | OVCAR-5 > 100 µM | HOP-92 24.9 µM | NCI-H522 18.8 µM and 19.2 µM

CC(C)CC1[C@@H](OCc2ccccc2)COS(=O)N1Cc1ccccc1 (stereo partly drawn)
inactive: OVCAR-3 54.2 µM | UACC-62 60 µM | EKVX 38.8 µM | Hs-578T 23.9 µM | ACHN 35 µM | SF-268 32.6 µM | HOP-62 56.6 µM | RPMI-8226 20.8 µM | KM12 26.8 µM | UO-31 34.6 µM | SR 19.9 µM | SK-MEL-5 33.5 µM | PC-3 30.1 µM | OVCAR-5 > 100 µM

CCN(CC)c1ccc2cc(-c3nnc(-c4ccccc4O)o3)c(=O)oc2c1
inactive: OVCAR-3 5.97 µM | A498 13 µM | UACC-62 10.6 µM | EKVX 17 µM | Hs-578T 20.1 µM | ACHN 10.2 µM | SF-268 6.92 µM | HOP-62 5.51 µM | RPMI-8226 14.6 µM | KM12 12.1 µM | UO-31 10.4 µM | SR 5.87 µM | SK-MEL-5 6.93 µM | PC-3 10.3 µM | OVCAR-5 16.2 µM | NCI-H522 5.43 µM

NC(CCc1ncc(-c2ccccc2)s1)C(=O)O (stereo not drawn)
inactive: OVCAR-3 > 100 µM | A498 > 100 µM | UACC-62 > 100 µM | EKVX > 100 µM | ACHN > 100 µM | RPMI-8226 > 100 µM | KM12 > 100 µM | UO-31 45.3 µM | RXF 393 > 100 µM | SK-MEL-5 > 100 µM | HOP-92 > 100 µM | NCI-H522 > 100 µM

Nc1nc(Cl)cc(NCC2(CO)CC(CCCCc3ccccc3)C2)n1 (stereo not drawn)
inactive: OVCAR-3 > 100 µM | A498 18.1 µM | UACC-62 > 100 µM | EKVX > 100 µM | Hs-578T 70.6 µM | ACHN > 100 µM | SF-268 > 100 µM | HOP-62 99.8 µM | RPMI-8226 10.9 µM | KM12 65 µM | SR 19.2 µM | RXF 393 34.6 µM | SK-MEL-5 3.86 µM | PC-3 46.1 µM | OVCAR-5 > 100 µM | HOP-92 96.4 µM | NCI-H522 66.7 µM

CCOC(=O)C(=O)/C(=C/NC(=S)Nc1ccc(Cl)c(Cl)c1)C(=O)OCC
inactive: OVCAR-3 72.9 µM | UACC-62 57.8 µM | EKVX 25.6 µM | Hs-578T 44.5 µM | ACHN > 100 µM | SF-268 > 100 µM | HOP-62 > 100 µM | RPMI-8226 17.9 µM | KM12 86.5 µM | UO-31 27.5 µM | SR 30.5 µM | RXF 393 37.8 µM | SK-MEL-5 27.6 µM | PC-3 47 µM | OVCAR-5 > 100 µM | HOP-92 55.8 µM

Cc1c(C(=O)CSc2nc3cc([N+](=O)[O-])ccc3[nH]2)c(=O)n(-c2ccccc2)n1C
inactive: OVCAR-3 71.8 µM | A498 > 100 µM | ACHN > 100 µM | SF-268 > 100 µM | HOP-62 > 100 µM | RPMI-8226 > 100 µM | KM12 > 100 µM | UO-31 > 100 µM | SR > 100 µM | SK-MEL-5 > 100 µM | OVCAR-5 > 100 µM | HOP-92 > 100 µM | NCI-H522 > 100 µM

Cc1c(N2CCOCC2)nc2ccc(Cl)cc2c1-c1ccccc1
inactive: OVCAR-3 64.7 µM | A498 > 100 µM | UACC-62 > 100 µM | EKVX 91.8 µM | ACHN 69 µM | SF-268 80.2 µM | HOP-62 > 100 µM | RPMI-8226 46.9 µM | KM12 87.9 µM | UO-31 > 100 µM | SR 34.4 µM | RXF 393 62.2 µM | SK-MEL-5 21 µM | HOP-92 42.7 µM | NCI-H522 30.8 µM

COc1ccc(NCc2cccc3c(=O)c4ccc(Cl)cc4oc23)cc1
inactive: OVCAR-3 > 100 µM | A498 > 100 µM | UACC-62 > 100 µM | EKVX > 100 µM | ACHN > 100 µM | HOP-62 > 100 µM | RPMI-8226 > 100 µM | KM12 > 100 µM | UO-31 > 100 µM | SR > 100 µM | SK-MEL-5 > 100 µM | T47D > 100 µM | PC-3 > 100 µM | OVCAR-5 > 100 µM | HOP-92 2.5 µM | NCI-H522 > 100 µM

O=C1C2=Cc3ccccc3CCN2c2ccc([N+](=O)[O-])cc21
inactive: OVCAR-3 44.2 µM | A498 35.9 µM | UACC-62 55.5 µM | EKVX 21.4 µM | Hs-578T 64.6 µM | ACHN 43.2 µM | SF-268 91.4 µM | HOP-62 > 100 µM | RPMI-8226 > 100 µM | KM12 > 100 µM | UO-31 24.2 µM | SR 66.8 µM | RXF 393 > 100 µM | SK-MEL-5 21.9 µM | PC-3 > 100 µM | OVCAR-5 > 100 µM | HOP-92 41.2 µM | NCI-H522 24 µM

O=C(Nc1ccc(F)cc1)c1cc2ccc(O)cc2o/c1=N\c1cccc(F)c1
inactive: OVCAR-3 38.3 µM | A498 43 µM | UACC-62 42.8 µM | EKVX 22.9 µM | ACHN 32.8 µM | SF-268 43.1 µM | HOP-62 42.5 µM | RPMI-8226 14.8 µM | KM12 29.9 µM | SR 33.3 µM | SK-MEL-5 16.1 µM | T47D 31.5 µM | PC-3 33 µM | OVCAR-5 > 100 µM | NCI-H522 16.4 µM

C[C@]12CC[C@@H]3c4ccc(OS(N)(=O)=O)cc4CC[C@H]3[C@@H]1CCC2=O [EMATE]
inactive: OVCAR-3 64 µM | A498 97.1 µM | UACC-62 37.6 µM | EKVX 5.07 µM | Hs-578T 10.5 µM | ACHN 84.9 µM | SF-268 32.9 µM | HOP-62 55.2 µM | RPMI-8226 31.1 µM | KM12 30.5 µM | UO-31 38.7 µM | RXF 393 63.4 µM | SK-MEL-5 13.5 µM | T47D 29 µM | OVCAR-5 > 100 µM | HOP-92 > 100 µM
